Results taken from patent publication US20220062233A1 (The Board of Trustees of the Leland Stanford Junior …, priority 2018, published 2022).

Columns and labels:
[1] = molecular target: T1, interaction between Supt4h and NGN (subunit of Supt5h) (Homo sapiens, UniProt O00267+P63272); experiment: Split Gaussia luciferase complementation assay (M2-8 Luciferase); format: cell-based; conditions: M2-8 cells
T1 construct: expressed in transfected cells
Procedure: A. Split Gaussia Luciferase Complementation Assay […]
i: pNBR-X1-Supt4-Gluc1 and pNEBR-X1-NGN-Gluc2
The HA-Supt4h and Flag-NGN fragments are amplified by PCR using the plasmid pHA-Supt4h-YC and pFlag-NGN-YN and sub-cloned individually into pcDNA3.1-Gluc1 and pcDNA3.1-Gluc2 (described in “A highly sensitive protein-protein interaction assay based on Gaussia luciferase” published at Nat Methods. 2006 December; 3(12):977-9. Epub 2006 Nov. 12). Then HA-Supt4h-Gluc1 and Flag-NGN-Gluc2 are amplified by PCR and inserted to pNEBR-X1-Hygro (New England BioLabs), which contain RheoSwitch responsive element under the control of RheoSwitch ligand. […]
ii: pNEBR-X1-Supt4h-G1-NGN-G2
PCR products containing the sequence from 5XRE to polyA in pNEBR-X1-NGN-G2 are inserted to pNEBR-X1-Supt4h-G1 at Pcil site to generate Supt4h-G1 and NGN-G2 bidirectional under their own RheoSwitch responsive element and polyA in the same plasmid. […]
b. Stable Cloned Cell Line i: 293-R1 is a cloned cell line which is engineered to constitutively express RSL1 receptor/activator by transfecting HEK 293 cells with pNEBR-R1 plasmid (New England BioLabs) and selected with blasticidin. […]
ii: M2-8 is a cloned 293-R1 cell which can inducibly express pNEBR-X1-Supt4h-G1-NGN-G2 by addition of RSL1. Two point mutations ([…] and M110I) are introduced to the GL1 and GL2 for better stability according to “A high-throughput cell-based Gaussia luciferase reporter assay for identifying modulators of fibulin-3 secretion” published in J Biomol Screen. 2013 July; 18(6):647-58. The cell line is selected by hygromycin. […]
c. Cell Culture and Transfection Condition
All the HEK-293 cells and derivative clones are maintained in DMEM containing 10% FBS plus corresponding antibiotics (250 μg/ml hygromycin B, 10 μg/ml blasticidin or both) at 37° C., 5% CO2. All the transfections are done by using Lipofectamine 2000 (Invitrogen) according to the manufacturer's instructions. […]
d. Bioluminescence Assay from Cell Lysates
Plasmids harboring the Gluc1 and Gluc2 are co-transfected in a 1:1 ratio into 293-R1 cells plated on tissue culture treated 24-well plates using Lipofectamine 2000 according to the manufacturer's instructions. For stable M2-8 cells, the cells are directly plated into 96-well or 384-well white plates. Twenty-four hours later, RheoSwitch ligand with or without test compound is added to the cells for induction/drug treatment. After 24 hr, the cells are washed with PBS and the plate was stored at −20° C. overnight. Lysis buffer [30 mM Tris-HCl (pH 8.0) 5 mM NaCl, 0.1% Triton X-100] with 10 μg/ml native coelenterazine (Nanolight Technology) is then added to the cells at room temperature for one hour in the dark. After shaking for about 1 min, 40 μl of cell lysate are transferred to a white 96-well plate. For M2-8 in white micro plate, no transfer is needed. Signal intensities (integrated 100 ms) were read on Tecan Infinite M200 or M1000.
The split Gaussia luciferase complementation assay measures the interaction between Sup4h and NGN. NGN is the subunit of Supt5h that binds to Supt4h.

M2-8 cells = experiment: M2-8 Cell viability Assay; format: cell-based; conditions: at the concentration of 1000 nM

| IC50 [1] | Compound | M2-8 Cell viability (M2-8 cells) |
| --- | --- | --- |
| 0.301 to 1 µM | CC(C)(O)c1ccc(C(CO)N[C@@H]2CCCc3c2[nH]c2ccc(Br)cc32)cc1 (mixture of isomers) [Compound 51, 2-(4-(1-(((R)-6-bromo-2,3,4,9-tetrahydro-1H-carbazol-1-yl)amino)-2-hydroxyethyl)phenyl) propan-2-ol] | + (cell viability is greater than 50% at the concentration of 1000 nM) |
| ≤ 0.1 µM | CC(C)(O)c1ccc(C(CF)N[C@@H]2CCCc3c2[nH]c2ccc(Br)cc32)cc1 (single isomer, unassigned) [Compound 54] | + (cell viability is greater than 50% at the concentration of 1000 nM) |
| ≤ 0.1 µM | CC(C)(O)c1ccc(C(CF)N[C@@H]2CCCc3c2[nH]c2ccc(Br)cc32)cc1 (single isomer, unassigned) [Compound 55] | + (cell viability is greater than 50% at the concentration of 1000 nM) |
| > 1 µM | c1ccc(CN[C@@H]2CCCc3c2[nH]c2ccccc32)cc1 [Compound 4, (R)—N-benzyl-2,3,4,9-tetrahydro-1H-carbazol-1-amine] | + (cell viability is greater than 50% at the concentration of 1000 nM) |
| 0.301 to 1 µM | CCc1ccc2[nH]c3c(c2c1)CCC[C@H]3NCc1ccccc1 [Compound 6] | + (cell viability is greater than 50% at the concentration of 1000 nM) |
| 0.301 to 1 µM | OCC#Cc1ccc2[nH]c3c(c2c1)CCC[C@H]3NCc1ccccc1 [Compound 7, (R)-3-(1-(benzylamino)-2,3,4,9-tetrahydro-1H-carbazol-6-yl)prop-2-yn-1-ol] | + (cell viability is greater than 50% at the concentration of 1000 nM) |
| > 1 µM | c1ccc(CN[C@@H]2CCCc3c2[nH]c2ccc(-c4ccccc4)cc32)cc1 [Compound 8, (R)—N-benzyl-6-phenyl-2,3,4,9-tetrahydro-1H-carbazol-1-amine] | + (cell viability is greater than 50% at the concentration of 1000 nM) |
| 0.301 to 1 µM | Oc1cccc(-c2ccc3[nH]c4c(c3c2)CCC[C@H]4NCc2ccccc2)c1 [Compound 9, (R)-3-(1-(benzylamino)-2,3,4,9-tetrahydro-1H-carbazol-6-yl)phenol] | + (cell viability is greater than 50% at the concentration of 1000 nM) |
| > 1 µM | Oc1ccc(-c2ccc3[nH]c4c(c3c2)CCC[C@H]4NCc2ccccc2)cc1 [Compound 10, (R)-4-(1-(benzylamino)-2,3,4,9-tetrahydro-1H-carbazol-6-yl)phenol] | + (cell viability is greater than 50% at the concentration of 1000 nM) |
| > 1 µM | c1ccc(CN[C@@H]2CCCc3c2[nH]c2ccc(-c4cn[nH]c4)cc32)cc1 [Compound 11, (R)—N-benzyl-6-(1H-pyrazol-4-yl)-2,3,4,9-tetrahydro-1H-carbazol-1-amine] | + (cell viability is greater than 50% at the concentration of 1000 nM) |
| > 1 µM | OCCc1ccc2[nH]c3c(c2c1)CCC[C@H]3NCc1ccccc1 [Compound 12, (R)-2-(1-(benzylamino)-2,3,4,9-tetrahydro-1H-carbazol-6-yl)ethan-1-ol] | + (cell viability is greater than 50% at the concentration of 1000 nM) |
| > 1 µM | N[C@@H]1CCCc2c1[nH]c1ccc(Br)cc21 [Compound 15] | + (cell viability is greater than 50% at the concentration of 1000 nM) |
| > 1 µM | CC1(C)CCC(NCc2ccccc2)c2[nH]c3ccc(Br)cc3c21 (stereo not drawn) [Compound 16] | + (cell viability is greater than 50% at the concentration of 1000 nM) |
| > 1 µM | CC1(C)Cc2c([nH]c3ccc(Br)cc23)[C@H](NCc2ccccc2)C1 [Compound 17] | + (cell viability is greater than 50% at the concentration of 1000 nM) |
| > 1 µM | Cn1c2c(c3cc(Br)ccc31)CCCC2NCc1ccccc1 (stereo not drawn) [Compound 18] | + (cell viability is greater than 50% at the concentration of 1000 nM) |
| 0.101 to 0.3 µM | Brc1ccc2[nH]c3c(c2c1)CCC[C@H]3NCc1ccc2ccccc2c1 [Compound 20, (R)-6-bromo-N-(naphthalen-2-ylmethyl)-2,3,4,9-tetrahydro-1H-carbazol-1-amine] | + (cell viability is greater than 50% at the concentration of 1000 nM) |
| 0.101 to 0.3 µM | Brc1ccc2[nH]c3c(c2c1)CCC[C@H]3NCc1ccc(N2CCCC2)cc1 [Compound 22, (R)-6-bromo-N-(4-(pyrrolidin-1-yl)benzyl)-2,3,4,9-tetrahydro-1H-carbazol-1-amine] | + (cell viability is greater than 50% at the concentration of 1000 nM) |
| 0.301 to 1 µM | COc1ccccc1CN[C@@H]1CCCc2c1[nH]c1ccc(Br)cc21 [Compound 23, (R)-6-bromo-N-(2-methoxybenzyl)-2,3,4,9-tetrahydro-1H-carbazol-1-amine] | + (cell viability is greater than 50% at the concentration of 1000 nM) |
| 0.101 to 0.3 µM | CN(C)c1ccc(CN[C@@H]2CCCc3c2[nH]c2ccc(Br)cc32)cc1 [Compound 29, (R)-6-bromo-N-(4-(dimethylamino)benzyl)-2,3,4,9-tetrahydro-1H-carbazol-1-amine] | + (cell viability is greater than 50% at the concentration of 1000 nM) |
| 0.101 to 0.3 µM | O=[N+]([O-])c1ccc(CN[C@@H]2CCCc3c2[nH]c2ccc(Br)cc32)cc1 [Compound 30, (R)-6-bromo-N-(4-nitrobenzyl)-2,3,4,9-tetrahydro-1H-carbazol-1-amine] | + (cell viability is greater than 50% at the concentration of 1000 nM) |
| > 1 µM | C(#CC1CC1)c1ccc2[nH]c3c(c2c1)CCC[C@H]3NCc1ccccc1 [Compound 34, (R)—N-benzyl-6-(cyclopropylethynyl)-2,3,4,9-tetrahydro-1H-carbazol-1-amine] | + (cell viability is greater than 50% at the concentration of 1000 nM) |
| 0.301 to 1 µM | Cn1cncc1CN[C@@H]1CCCc2c1[nH]c1ccc(Br)cc21 [Compound 35, (R)-6-bromo-N-((1-methyl-1H-imidazol-5-yl)methyl)-2,3,4,9-tetrahydro-1H-carbazol-1-amine] | + (cell viability is greater than 50% at the concentration of 1000 nM) |
| 0.101 to 0.3 µM | Brc1ccc2[nH]c3c(c2c1)CCC[C@H]3NCc1ccc(I)cc1 [Compound 40, (R)-6-bromo-N-(4-iodobenzyl)-2,3,4,9-tetrahydro-1H-carbazol-1-amine] | + (cell viability is greater than 50% at the concentration of 1000 nM) |
| 0.301 to 1 µM | CC(=O)c1ccc2[nH]c3c(c2c1)CCC[C@H]3NCc1ccccc1 [Compound 46, (R)-1-(1-(benzylamino)-2,3,4,9-tetrahydro-1H-carbazol-6-yl)ethan-1-one] | + (cell viability is greater than 50% at the concentration of 1000 nM) |
| 0.101 to 0.3 µM | C=C(C)c1ccc(CN[C@@H]2CCCc3c2[nH]c2ccc(Br)cc32)cc1 [Compound 47, (R)-6-bromo-N-(4-(prop-1-en-2-yl)benzyl)-2,3,4,9-tetrahydro-1H-carbazol-1-amine] | + (cell viability is greater than 50% at the concentration of 1000 nM) |
| ≤ 0.1 µM | CC(C)(OCCO)c1ccc(CN[C@@H]2CCCc3c2[nH]c2ccc(Br)cc32)cc1 [Compound 56, (R)-2-((2-(4-(((6-bromo-2,3,4,9-tetrahydro-1H-carbazol-1-yl)amino)methyl)phenyl)propan-2-yl)oxy)ethan-1-ol] | + (cell viability is greater than 50% at the concentration of 1000 nM) |
| ≤ 0.1 µM | OCc1cccc(CN[C@@H]2CCCc3c2[nH]c2ccc(Br)cc32)c1 [Compound 57, (R)-(3-(((6-bromo-2,3,4,9-tetrahydro-1H-carbazol-1-yl)amino)methyl)phenyl)methanol] | + (cell viability is greater than 50% at the concentration of 1000 nM) |
